Measurements: patent publication US9567302B2, “Carbamate compounds and of making and using same” (Abide Therapeutics, Inc., priority 2012, dated 2017)

Tests used:
Format in all cases: biochemical
Parameters in all cases: from tissue
[1] = molecular target: T1, MAGL (Mus musculus, UniProt O35678); assay: In vitro competitive ABPP, % inhibition at fixed concentration, MAGL
T1 sequence (O35678 1-303): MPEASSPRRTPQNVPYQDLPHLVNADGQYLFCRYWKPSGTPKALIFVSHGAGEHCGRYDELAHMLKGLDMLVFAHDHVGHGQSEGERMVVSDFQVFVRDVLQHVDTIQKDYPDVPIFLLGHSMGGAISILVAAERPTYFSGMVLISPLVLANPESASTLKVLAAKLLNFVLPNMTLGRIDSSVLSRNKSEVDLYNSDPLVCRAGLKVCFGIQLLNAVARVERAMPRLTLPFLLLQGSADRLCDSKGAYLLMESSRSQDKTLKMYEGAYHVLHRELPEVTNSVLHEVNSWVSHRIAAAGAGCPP
Procedure: (§1) In Vitro Competitive Activity-Based Protein Profiling.
(§2) Proteomes (mouse brain membrane fraction or cell lysates) (50 μL, 1.0 mg/ml total protein concentration) were preincubated with varying concentrations of inhibitors at 37° C. After 30 min, FP-Rh (1.0 μL, 50 μM in DMSO) was added and the mixture was incubated for another 30 min at 37° C. Reactions were quenched with SDS loading buffer (50 μL—4×) and run on SDS-PAGE. Following gel imaging, serine hydrolase activity was determined by measuring fluorescent intensity of gel bands corresponding to MAGL, ABHD6 and FAAH using ImageJ 1.43u software.

[2] = molecular target: T2, ABHD6 (Mus musculus, UniProt Q8R2Y0); assay: In vitro competitive ABPP, % inhibition at fixed concentration, ABHD6
T2 sequence (Q8R2Y0 1-336): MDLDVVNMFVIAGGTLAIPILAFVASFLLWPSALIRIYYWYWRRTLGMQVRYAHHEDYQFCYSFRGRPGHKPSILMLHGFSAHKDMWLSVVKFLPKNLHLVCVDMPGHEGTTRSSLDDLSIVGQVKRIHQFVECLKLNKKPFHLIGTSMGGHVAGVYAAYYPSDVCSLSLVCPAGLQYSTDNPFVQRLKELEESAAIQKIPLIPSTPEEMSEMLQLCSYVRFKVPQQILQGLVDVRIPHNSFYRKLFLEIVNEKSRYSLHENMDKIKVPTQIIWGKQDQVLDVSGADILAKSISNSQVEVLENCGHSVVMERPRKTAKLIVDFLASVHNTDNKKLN
Procedure: as §1, §2

[3] = molecular target: T3, FAAH (Mus musculus, UniProt O08914); assay: In vitro competitive ABPP, % inhibition at fixed concentration, FAAH
T3 sequence (O08914 1-579): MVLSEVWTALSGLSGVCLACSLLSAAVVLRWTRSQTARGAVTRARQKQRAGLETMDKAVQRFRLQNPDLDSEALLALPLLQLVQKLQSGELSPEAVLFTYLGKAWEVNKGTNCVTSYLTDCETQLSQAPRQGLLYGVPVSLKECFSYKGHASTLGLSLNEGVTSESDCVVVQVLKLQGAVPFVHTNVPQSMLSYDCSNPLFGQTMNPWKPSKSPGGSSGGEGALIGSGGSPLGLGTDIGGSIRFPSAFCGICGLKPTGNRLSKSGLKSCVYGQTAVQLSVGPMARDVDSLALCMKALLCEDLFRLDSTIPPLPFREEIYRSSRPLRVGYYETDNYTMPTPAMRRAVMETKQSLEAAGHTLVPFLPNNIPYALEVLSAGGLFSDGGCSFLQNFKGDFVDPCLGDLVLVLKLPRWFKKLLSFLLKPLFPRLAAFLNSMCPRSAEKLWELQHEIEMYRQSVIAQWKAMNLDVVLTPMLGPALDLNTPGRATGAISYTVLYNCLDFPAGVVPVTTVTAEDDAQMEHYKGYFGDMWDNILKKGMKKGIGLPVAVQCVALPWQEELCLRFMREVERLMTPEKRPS
Procedure: as §1, §2

Row | SMILES | inhibition at 1 µM [1] | inhibition at 1 µM [2] | inhibition at 1 µM [3] | inhibition at 10 µM [1] | inhibition at 10 µM [2] | inhibition at 10 µM [3]
1 | O=C(ON1C(=O)CCC1=O)N1CCN(Cc2ccc(-c3ccccc3)cc2F)CC1 [Example 164, 2,5-Dioxopyrrolidin-1-yl 4-[(2-fluoro-4-phenylphenyl)methyl]piperazine-1-carboxylate] | > 75% | > 75% | < 25% |  |  | 
2 | O=C(ON1C(=O)CCC1=O)N1CCN(Cc2ccc(Cl)c(C(=O)N3CCC3)c2)CC1 [Example 210, 2,5-Dioxopyrrolidin-1-yl 4-{[3-(azetidine-1-carbonyl)-4-chlorophenyl]methyl}piperazine-1-carboxylate] | < 25% | 25 to 75% | < 25% |  |  | 
3 | Cc1cccc(-c2ccc(CN3CCN(C(=O)ON4C(=O)CCC4=O)CC3)c(C)c2)n1 [Example 173, 2,5-Dioxopyrrolidin-1-yl 4-{[2-methyl-4-(6-methylpyridin-2-yl)phenyl]methyl}piperazine-1-carboxylate] | 25 to 75% | 25 to 75% | < 25% |  |  | 
4 | O=C(ON1C(=O)CCC1=O)N1CCN(Cc2ccc(N3CCOCC3)cc2OC(F)(F)F)CC1 [Example 102, 2,5-Dioxopyrrolidin-1-yl 4-{[4-(morpholin-4-yl)-2-(trifluoromethoxy)phenyl]methyl}piperazine-1-carboxylate] | > 75% | 25 to 75% | < 25% |  |  | 
5 | Cc1cccc(-c2ccc(CN3CCN(C(=O)ON4C(=O)CCC4=O)CC3)c(Oc3ccccc3)c2)c1 [Example 169, 2,5-Dioxopyrrolidin-1-yl 4-{[4-(3-methylphenyl)-2-phenoxyphenyl]methyl}piperazine-1-carboxylate] | 25 to 75% | > 75% | < 25% |  |  | 
6 | Cn1ncc(Br)c1CN1CCN(C(=O)ON2C(=O)CCC2=O)CC1 [Example 135, 2,5-Dioxopyrrolidin-1-yl 4-((4-bromo-1-methyl-1H-pyrazol-5-yl)methyl)piperazine-1-carboxylate] | 25 to 75% | 25 to 75% | < 25% |  |  | 
7 | CC1(C)CN(Cc2ccc(N3CCOCC3)cc2OC(F)(F)F)CCN1C(=O)ON1C(=O)CCC1=O [Example 87, 2,5-Dioxopyrrolidin-1-yl 2,2-dimethyl-4-{[4-(morpholin-4-yl)-2-(trifluoromethoxy)phenyl]methyl}piperazine-1-carboxylate] | < 25% | < 25% | < 25% |  |  | 
8 | Cc1cc(-c2cccnc2)ccc1CN1CCN(C(=O)ON2C(=O)CCC2=O)CC1 [Example 172, 2,5-Dioxopyrrolidin-1-yl 4-{[2-methyl-4-(pyridin-3-yl)phenyl]methyl}piperazine-1-carboxylate] | 25 to 75% | 25 to 75% | < 25% |  |  | 
9 | O=C(ON1C(=O)CCC1=O)N1CCN(C(=O)c2ccccc2)CC1 [Example 212, 2,5-Dioxopyrrolidin-1-yl 4-benzoylpiperazine-1-carboxylate] |  |  |  | 25 to 75% | < 25% | < 25%
10 | Cc1nc(CN2CCN(C(=O)ON3C(=O)CCC3=O)CC2)ccc1-c1ccccc1F [Example 178, 2,5-Dioxopyrrolidin-1-yl 4-{[5-(2-fluorophenyl)-6-methylpyridin-2-yl]methyl}piperazine-1-carboxylate] | 25 to 75% | 25 to 75% | < 25% |  |  | 
11 | Cn1ncc2cc(C(c3ccc4c(cnn4C)c3)N3CCN(C(=O)ON4C(=O)CCC4=O)CC3)ccc21 [Example 154, 2,5-dioxopyrrolidin-1-yl 4-(bis(1-methyl-1H-indazol-5-yl)methyl)piperazine-1-carboxylate] | 25 to 75% | 25 to 75% | < 25% |  |  | 
12 | Cc1cc(CN2CCN(C(=O)ON3C(=O)CCC3=O)CC2)n(C(C)C)n1 [Example 146, 2,5-Dioxopyrrolidin-1-yl 4-{[3-methyl-1-(propan-2-yl)-1H-pyrazol-5-yl]methyl}piperazine-1-carboxylate] | 25 to 75% | 25 to 75% | < 25% |  |  | 
13 | Cc1cc(-c2ccc(CN3CCN(C(=O)ON4C(=O)CCC4=O)CC3)c(C)c2)ccn1 [Example 159, 2,5-Dioxopyrrolidin-1-yl 4-{[2-methyl-4-(2-methylpyridin-4-yl)phenyl]methyl}piperazine-1-carboxylate] | 25 to 75% | 25 to 75% | < 25% |  |  | 
14 | Cc1ccc(N2CCCC2)c(CN2CCN(C(=O)ON3C(=O)CCC3=O)CC2)c1 [Example 128, 2,5-Dioxopyrrolidin-1-yl 4-{[5-methyl-2-(pyrrolidin-1-yl)phenyl]methyl}piperazine-1-carboxylate] | 25 to 75% | < 25% | < 25% |  |  | 
15 | Cc1ccc(C(=O)N2CCCC2)c(CN2CCN(C(=O)ON3C(=O)CCC3=O)CC2)c1 [Example 202, 2,5-Dioxopyrrolidin-1-yl 4-{[5-methyl-2-(pyrrolidine-1-carbonyl)phenyl]methyl}piperazine-1-carboxylate] | < 25% | < 25% | < 25% |  |  | 
16 | Cc1ccccc1-c1ccc(CN2CCN(C(=O)ON3C(=O)CCC3=O)CC2)c(C)n1 [Example 182, 2,5-Dioxopyrrolidin-1-yl 4-{[2-methyl-6-(2-methylphenyl)pyridin-3-yl]methyl}piperazine-1-carboxylate] | 25 to 75% | > 75% | < 25% |  |  | 
17 | C[C@@H]1CN(Cc2ccc(N3CCOCC3)cc2OC(F)(F)F)CCN1C(=O)ON1C(=O)CCC1=O [Example 103, 2,5-Dioxopyrrolidin-1-yl (2R)-2-methyl-4-{[4-(morpholin-4-yl)-2-(trifluoromethoxy)phenyl]methyl}piperazine-1-carboxylate] | < 25% | < 25% | < 25% |  |  | 
18 | O=C(ON1C(=O)CCC1=O)N1CCN(Cc2cc(C(F)(F)F)ccc2C(=O)N2CCCC2)CC1 [Example 204, 2,5-Dioxopyrrolidin-1-yl 4-{[2-(pyrrolidine-1-carbonyl)-5-(trifluoromethyl)phenyl]methyl}piperazine-1-carboxylate] | < 25% | < 25% | < 25% |  |  | 
19 | O=C(ON1C(=O)CCC1=O)N1CCN(Cc2ccc(N3CCCC3)cc2)CC1 [Example 99, 2,5-Dioxopyrrolidin-1-yl 4-(4-(pyrrolidin-1-yl)benzyl)piperazine-1-carboxylate] | 25 to 75% | 25 to 75% | < 25% |  |  | 
20 | O=C(ON1C(=O)CCC1=O)N1CCN(Cc2cc(C(F)(F)F)ccc2N2CCOCC2)CC1 [Example 119, 2,5-Dioxopyrrolidin-1-yl 4-{[2-(morpholin-4-yl)-5-(trifluoromethyl)phenyl]methyl}piperazine-1-carboxylate] | 25 to 75% | 25 to 75% | < 25% |  |  | 
21 | CC1(C)CN(Cc2ccc(N3CCOCC3)cc2C(F)(F)F)CCN1C(=O)ON1C(=O)CCC1=O [Example 86, 2,5-Dioxopyrrolidin-1-yl 2,2-dimethyl-4-{[4-(morpholin-4-yl)-2-(trifluoromethyl)phenyl]methyl}piperazine-1-carboxylate] | < 25% | < 25% | < 25% |  |  | 
22 | O=C(CN1CCC1)N1CCN(C(=O)ON2C(=O)CCC2=O)CC1 [Example 216, 2,5-Dioxopyrrolidin-1-yl 4-[2-(azetidin-1-yl)acetyl]piperazine-1-carboxylate] |  |  |  | < 25% | < 25% | < 25%
23 | O=C(CN1CCCC1)N1CCN(C(=O)ON2C(=O)CCC2=O)CC1 [Example 214, 2,5-Dioxopyrrolidin-1-yl 4-[2-(pyrrolidin-1-yl)acetyl]piperazine-1-carboxylate] |  |  |  | < 25% | < 25% | < 25%
